Laboratory results published in patent US12252524B2, “GIP/GLP1 co-agonist compounds” (Eli Lilly and Company, priority 2018, dated 2025).
Numbered stars: 1 amine (or outer) side, 2 acyl side, 3 side chain; on linkers, the order of the positions; unused ones are H or OH. Square brackets hold non-standard residues; d marks the D form. Side chains are listed from the residue outwards. Peptide text beside a SMILES is read from it. * marks the point of attachment. Malonyl(2,2-Me2,histaminyl) = CC(C)(C(=O)NCCc1cnc[nH]1)C(=O)*; C20 diacid = O=C(O)CCCCCCCCCCCCCCCCCCC(=O)*; αMePhe(2-F) = C[C@](N)(Cc1ccccc1F)C(=O)O; γGlu = O=C(O)[C@H](CCC(=O)[*:2])N[*:1]; Desaminohistidyl = O=C(CCc1c[nH]cn1)*; αMeF = C[C@](N)(Cc1ccccc1)C(=O)O; αMeL = CC(C)C[C@](C)(N)C(=O)O; AEEA = NCCOCCOCC(=O)O; Aib = CC(C)(N)C(=O)O

How the values were obtained:
[1] = target: T1, gastric inhibitory peptide receptor (GIPR) (Homo sapiens, UniProt P48546); experiment: cAMP pharmacological functional assay in presence of casein, hGIPR; type: cell-based; conditions: HEK293 cells expressing hGIPR, 0.1% Casein, geometric mean; read-out: hGIPR cAMP Rel EC50 nM (SEM, n)
T1 sequence (P48546 22-466): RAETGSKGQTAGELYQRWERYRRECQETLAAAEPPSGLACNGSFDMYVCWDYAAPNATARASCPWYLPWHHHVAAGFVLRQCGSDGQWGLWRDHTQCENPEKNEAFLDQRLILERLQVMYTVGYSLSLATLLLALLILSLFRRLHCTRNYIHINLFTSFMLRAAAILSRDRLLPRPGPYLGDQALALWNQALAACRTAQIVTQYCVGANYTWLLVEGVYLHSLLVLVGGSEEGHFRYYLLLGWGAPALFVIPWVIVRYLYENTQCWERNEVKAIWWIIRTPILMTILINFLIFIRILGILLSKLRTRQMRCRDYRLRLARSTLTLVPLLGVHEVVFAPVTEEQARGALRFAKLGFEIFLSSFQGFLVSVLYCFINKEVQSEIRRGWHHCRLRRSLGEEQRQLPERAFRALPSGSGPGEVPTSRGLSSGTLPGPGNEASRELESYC

human GIP receptor = target: T2, human GIP receptor (Homo sapiens, UniProt P48546); experiment: [125I]-GIP binding (SPA), human GIP receptor; conditions: read-out: hGIPR Ki, nM (SEM, n)
T2 construct: expressed in transfected cells; crude membranes
T2 sequence (P48546 22-466): T1 sequence (P48546 22-466)

human Gcg receptor = target: T3, human Gcg receptor (Homo sapiens, UniProt P47871); experiment: [125I]-Glucagon binding (SPA), human Gcg receptor; conditions: read-out: hGLcgR Ki, nM (SEM, n)
T3 construct: expressed in transfected cells; crude membranes
T3 sequence (P47871 26-477): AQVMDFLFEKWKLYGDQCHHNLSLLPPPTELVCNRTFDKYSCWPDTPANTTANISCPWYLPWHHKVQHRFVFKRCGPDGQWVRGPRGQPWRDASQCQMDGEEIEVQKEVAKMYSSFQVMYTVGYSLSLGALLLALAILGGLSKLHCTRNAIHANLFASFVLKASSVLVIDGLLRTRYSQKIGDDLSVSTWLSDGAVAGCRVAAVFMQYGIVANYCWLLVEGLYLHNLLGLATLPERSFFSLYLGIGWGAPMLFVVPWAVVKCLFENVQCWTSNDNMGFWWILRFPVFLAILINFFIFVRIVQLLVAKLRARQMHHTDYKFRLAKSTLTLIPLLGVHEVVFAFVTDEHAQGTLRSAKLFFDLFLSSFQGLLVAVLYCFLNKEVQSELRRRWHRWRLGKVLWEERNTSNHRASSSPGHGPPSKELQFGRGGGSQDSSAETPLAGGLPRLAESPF
Method in brief: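 Crude membranes from cells expressing the receptor, prepared by hypotonic lysis in 50 mM Tris HCl pH 7.5 with protease inhibitors, homogenization and differential centrifugation, were used in a WGA-bead SPA. Binding buffer: 25 mM HEPES pH 7.4, 2.5 mM CaCl2, 1 mM MgCl2, bacitracin, Tween-20.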

human GLP-1R = human GLP-1R (Homo sapiens, UniProt P43220); experiment: [125I]-GLP-1 binding (SPA), human GLP-1 receptor; design: expressed in transfected cells; crude membranes; conditions: read-out: hGLP1R Ki, (nM) (SEM, n)
Sequence of human GLP-1R (P43220 24-463): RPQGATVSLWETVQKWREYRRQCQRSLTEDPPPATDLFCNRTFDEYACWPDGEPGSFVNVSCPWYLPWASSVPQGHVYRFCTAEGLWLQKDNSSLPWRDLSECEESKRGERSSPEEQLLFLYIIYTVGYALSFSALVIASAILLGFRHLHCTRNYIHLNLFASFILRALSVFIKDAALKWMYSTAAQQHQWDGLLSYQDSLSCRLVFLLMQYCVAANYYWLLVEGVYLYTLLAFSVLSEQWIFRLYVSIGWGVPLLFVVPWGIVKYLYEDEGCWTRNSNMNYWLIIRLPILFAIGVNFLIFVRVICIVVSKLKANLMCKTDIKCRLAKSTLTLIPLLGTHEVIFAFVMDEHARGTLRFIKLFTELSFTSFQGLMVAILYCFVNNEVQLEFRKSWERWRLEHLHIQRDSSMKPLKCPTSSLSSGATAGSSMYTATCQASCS
Method in brief: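 Crude-membrane binding assay; one membrane prep included 1 mM MgCl2 and 25 units/ml DNAse I during lysis. Assay buffer at pH 7.4 contains 0.1% (w/v) bacitracin and 0.003% (w/v) TWEEN-20. Ki is reported as geometric mean.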

[2] = target: human GLP-1 receptor (GLP-1R) (Homo sapiens, UniProt P43220); experiment: cAMP pharmacological functional assay in presence of casein, hGLP-1R; type: cell-based; conditions: HEK293 cells expressing hGLP-1R, 0.1% Casein, geometric mean; read-out: hGLP1R cAMP Rel EC50 nM (SEM, n)
Sequence of human GLP-1 receptor (GLP-1R) (P43220 24-463): as above

| EC50 [1] [nM] | Ki (human GIP receptor) [nM] | Ki (human Gcg receptor) [nM] | Ki (human GLP-1R) [nM] | EC50 [2] [nM] | Structure (SMILES) |
| --- | --- | --- | --- | --- | --- |
| 0.0643 | 0.027 | 23.6 | 1.15 | 0.0986 | CC[C@H](C)[C@H](NC(=O)[C@H](CC(C)C)NC(=O)[C@H](Cc1ccc(O)cc1)NC(=O)[C@H](CCC(=O)O)NC(=O)[C@@H](NC(=O)[C@H](Cc1ccccc1)NC(=O)[C@H](C)NC(=O)C(C)(C)NC(=O)[C@H](CCC(N)=O)NC(=O)[C@H](C)NC(=O)[C@H](CCCCNC(=O)COCCOCCNC(=O)COCCOCCNC(=O)CC[C@H](NC(=O)CCCCCCCCCCCCCCCCCCC(=O)O)C(=O)O)NC(=O)[C@H](CCCCN)NC(=O)[C@H](CC(=O)O)NC(=O)[C@H](CC(C)C)NC(=O)[C@](C)(CC(C)C)NC(=O)[C@@H](NC(=O)[C@H](CO)NC(=O)[C@H](Cc1ccc(O)cc1)NC(=O)[C@H](CC(=O)O)NC(=O)[C@H](CO)NC(=O)[C@@H](NC(=O)[C@](C)(Cc1ccccc1)NC(=O)[C@@H](NC(=O)CNC(=O)[C@H](CCC(=O)O)NC(=O)C(C)(C)NC(=O)[C@@H](N)Cc1ccc(O)cc1)[C@@H](C)O)[C@@H](C)O)[C@@H](C)CC)[C@@H](C)CC)C(=O)N[C@@H](CCC(=O)O)C(=O)NCC(=O)NCC(N)=O [Example 99] (H-Y[Aib]EGT[αMeF]TSDYSI[αMeL]LDKK([AEEA-AEEA-γGlu-C20 diacid])AQ[Aib]AFIEYLIEGG-NH2) |
| 0.12 | 0.115 | 44 | 4.13 | 0.079 | CC[C@H](C)[C@H](NC(=O)[C@H](CC(C)C)NC(=O)[C@H](Cc1ccc(O)cc1)NC(=O)[C@H](CCC(=O)O)NC(=O)[C@@H](NC(=O)[C@H](Cc1ccccc1)NC(=O)[C@H](C)NC(=O)C(C)(C)NC(=O)[C@H](CCC(N)=O)NC(=O)[C@H](C)NC(=O)[C@H](CCCCNC(=O)COCCOCCNC(=O)COCCOCCNC(=O)CC[C@H](NC(=O)CCCCCCCCCCCCCCCCCCC(=O)O)C(=O)O)NC(=O)[C@H](CCC(=O)O)NC(=O)[C@H](CC(=O)O)NC(=O)[C@H](CC(C)C)NC(=O)[C@](C)(CC(C)C)NC(=O)[C@@H](NC(=O)[C@H](CO)NC(=O)[C@H](Cc1ccc(O)cc1)NC(=O)[C@H](CC(=O)O)NC(=O)[C@H](CO)NC(=O)[C@@H](NC(=O)[C@](C)(Cc1ccccc1)NC(=O)[C@@H](NC(=O)CNC(=O)[C@H](CCC(=O)O)NC(=O)C(C)(C)NC(=O)[C@@H](N)Cc1ccc(O)cc1)[C@@H](C)O)[C@@H](C)O)[C@@H](C)CC)[C@@H](C)CC)C(=O)N[C@@H](CCC(=O)O)C(=O)NCC(=O)NCC(N)=O [Example 100] (H-Y[Aib]EGT[αMeF]TSDYSI[αMeL]LDEK([AEEA-AEEA-γGlu-C20 diacid])AQ[Aib]AFIEYLIEGG-NH2; N-terminus assumed) |
| 0.0704 | 0.0953 | 117 | 8.1 | 0.0579 | CC[C@H](C)[C@H](NC(=O)[C@H](CC(C)C)NC(=O)[C@H](Cc1ccc(O)cc1)NC(=O)[C@H](CCC(=O)O)NC(=O)[C@@H](NC(=O)[C@H](Cc1ccccc1)NC(=O)[C@H](C)NC(=O)C(C)(C)NC(=O)[C@H](CCC(N)=O)NC(=O)[C@H](C)NC(=O)[C@H](CCCCNC(=O)COCCOCCNC(=O)COCCOCCNC(=O)CC[C@H](NC(=O)CCCCCCCCCCCCCCCCCCC(=O)O)C(=O)O)NC(=O)[C@H](CCC(=O)O)NC(=O)[C@H](CC(=O)O)NC(=O)[C@H](CC(C)C)NC(=O)C(C)(C)NC(=O)[C@@H](NC(=O)[C@H](CO)NC(=O)[C@H](Cc1ccc(O)cc1)NC(=O)[C@H](CC(=O)O)NC(=O)[C@H](CO)NC(=O)[C@@H](NC(=O)[C@](C)(Cc1ccccc1F)NC(=O)[C@@H](NC(=O)CNC(=O)[C@H](CCC(=O)O)NC(=O)C(C)(C)NC(=O)[C@@H](N)Cc1ccc(O)cc1)[C@@H](C)O)[C@@H](C)O)[C@@H](C)CC)[C@@H](C)CC)C(=O)N[C@@H](CCC(=O)O)C(=O)NCC(=O)NCC(N)=O [Example 101] (H-Y[Aib]EGT[αMePhe(2-F)]TSDYSI[Aib]LDEK([AEEA-AEEA-γGlu-C20 diacid])AQ[Aib]AFIEYLIEGG-NH2) |
| 0.0693 | 0.0645 | 40.3 | 6.68 | 0.101 | CC[C@H](C)[C@H](NC(=O)[C@H](CC(C)C)NC(=O)[C@H](Cc1ccc(O)cc1)NC(=O)[C@H](CCC(=O)O)NC(=O)[C@@H](NC(=O)[C@H](Cc1ccccc1)NC(=O)[C@H](CCC(=O)O)NC(=O)C(C)(C)NC(=O)[C@H](CCC(N)=O)NC(=O)[C@H](C)NC(=O)[C@H](CCCCNC(=O)COCCOCCNC(=O)COCCOCCNC(=O)CC[C@H](NC(=O)CCCCCCCCCCCCCCCCCCC(=O)O)C(=O)O)NC(=O)[C@H](CCC(=O)O)NC(=O)[C@H](CC(=O)O)NC(=O)[C@H](CC(C)C)NC(=O)[C@](C)(CC(C)C)NC(=O)[C@@H](NC(=O)[C@H](CO)NC(=O)[C@H](Cc1ccc(O)cc1)NC(=O)[C@H](CC(=O)O)NC(=O)[C@H](CO)NC(=O)[C@@H](NC(=O)[C@](C)(Cc1ccccc1F)NC(=O)[C@@H](NC(=O)CNC(=O)[C@H](CCC(=O)O)NC(=O)C(C)(C)NC(=O)[C@@H](N)Cc1ccc(O)cc1)[C@@H](C)O)[C@@H](C)O)[C@@H](C)CC)[C@@H](C)CC)C(=O)N[C@@H](CCC(=O)O)C(=O)NCC(=O)NCC(N)=O [Example 103] (H-Y[Aib]EGT[αMePhe(2-F)]TSDYSI[αMeL]LDEK([AEEA-AEEA-γGlu-C20 diacid])AQ[Aib]EFIEYLIEGG-NH2; N-terminus assumed) |

| Structure (SMILES) | EC50 [1] [nM] | Ki (human GIP receptor) [nM] | Ki (human Gcg receptor) [nM] | Ki (human GLP-1R) [nM] | EC50 [2] [nM] |
| --- | --- | --- | --- | --- | --- |
| CC[C@H](C)[C@H](NC(=O)[C@H](CC(C)C)NC(=O)[C@H](Cc1ccc(O)cc1)NC(=O)[C@H](CCC(=O)O)NC(=O)[C@@H](NC(=O)[C@H](Cc1ccccc1)NC(=O)[C@H](C)NC(=O)C(C)(C)NC(=O)[C@H](CCC(N)=O)NC(=O)[C@H](C)NC(=O)[C@H](CCCCNC(=O)COCCOCCNC(=O)COCCOCCNC(=O)CC[C@H](NC(=O)CCCCCCCCCCCCCCCCCCC(=O)O)C(=O)O)NC(=O)[C@H](CCCCN)NC(=O)[C@H](CC(=O)O)NC(=O)[C@H](CC(C)C)NC(=O)[C@H](CC(C)C)NC(=O)[C@@H](NC(=O)[C@H](CO)NC(=O)[C@H](Cc1ccc(O)cc1)NC(=O)[C@H](CC(=O)O)NC(=O)[C@H](CO)NC(=O)[C@@H](NC(=O)[C@H](Cc1ccccc1)NC(=O)[C@@H](NC(=O)CNC(=O)[C@H](CCC(=O)O)NC(=O)C(C)(C)C(=O)NCCc1cnc[nH]1)[C@@H](C)O)[C@@H](C)O)[C@@H](C)CC)[C@@H](C)CC)C(=O)N[C@@H](CCC(=O)O)C(=O)NCC(=O)NCC(=O)N1CCC[C@H]1C(=O)N[C@@H](CO)C(=O)N[C@@H](CO)C(=O)NCC(=O)N[C@@H](C)C(=O)N1CCC[C@H]1C(=O)N1CCC[C@H]1C(=O)N1CCC[C@H]1C(=O)N[C@@H](CO)C(N)=O [Example 105] ({Malonyl(2,2-Me2,histaminyl)}-EGTFTSDYSILLDKK([AEEA-AEEA-γGlu-C20 diacid])AQ[Aib]AFIEYLIEGGPSSGAPPPS-NH2) | 1.85 | 0.119 | 20.4 | 0.871 | 0.0401 |
| CC[C@H](C)[C@H](NC(=O)[C@H](CC(C)C)NC(=O)[C@H](Cc1ccc(O)cc1)NC(=O)[C@H](CCC(=O)O)NC(=O)[C@@H](NC(=O)[C@H](Cc1ccccc1)NC(=O)[C@H](C)NC(=O)C(C)(C)NC(=O)[C@H](CCC(N)=O)NC(=O)[C@H](C)NC(=O)[C@H](CCCCNC(=O)COCCOCCNC(=O)COCCOCCNC(=O)CC[C@H](NC(=O)CCCCCCCCCCCCCCCCCCC(=O)O)C(=O)O)NC(=O)[C@H](CCCCN)NC(=O)[C@H](CC(=O)O)NC(=O)[C@H](CC(C)C)NC(=O)[C@H](CC(C)C)NC(=O)[C@@H](NC(=O)[C@H](CO)NC(=O)[C@H](Cc1ccc(O)cc1)NC(=O)[C@H](CC(=O)O)NC(=O)[C@H](CO)NC(=O)[C@@H](NC(=O)[C@H](Cc1ccccc1)NC(=O)[C@@H](NC(=O)CNC(=O)[C@H](CCC(=O)O)NC(=O)C(C)(C)NC(=O)CCc1c[nH]cn1)[C@@H](C)O)[C@@H](C)O)[C@@H](C)CC)[C@@H](C)CC)C(=O)N[C@@H](CCC(=O)O)C(=O)NCC(=O)NCC(=O)N1CCC[C@H]1C(=O)N[C@@H](CO)C(=O)N[C@@H](CO)C(=O)NCC(=O)N[C@@H](C)C(=O)N1CCC[C@H]1C(=O)N1CCC[C@H]1C(=O)N1CCC[C@H]1C(=O)N[C@@H](CO)C(N)=O [Example 106] (Desaminohistidyl-[Aib]EGTFTSDYSILLDKK([AEEA-AEEA-γGlu-C20 diacid])AQ[Aib]AFIEYLIEGGPSSGAPPPS-NH2) | 6.54 | 0.179 | 515 | 1.2 | 0.0413 |
